The source of these data is patent publication US20050219340A1, “Actinic ray curable ink composition, image forming method and ink-jet recording apparatus using the same” (KONICA MINOLTA MEDICAL & GRAPHIC, INC., priority 2004, published 2005).

Molecules are shown by their SMILES.

For orientation: logP means the decadic logarithm of the partition coefficient of the neutral form, usually between octanol and water. Low readings indicate a more hydrophilic compound, high ones a more lipophilic compound.

The series is described as follows: physchem.
Description: P(O/W), as described in the present invention, refers to the partition coefficient between 1-octanol and water and is as defined for the value which is treated as information to judge accumulativeness in the bodies of fish and shellfish, in the course of registration of new compounds, to conform in the Law Concerning Examination and Regulation of Manufacture etc. of Chemical Substances (a Japanese law), and is represented by the formula below; P(O/W)=CO/CW wherein CO represents the concentration (in mg/L) of a compound in the 1-octanol layer, while CW represents the concentration (in mg/L) of the above compound in the water layer.
In the case of `COc1ccc([S+](c2ccc(OC)cc2)c2ccc(Oc3ccc(C)cc3)cc2)cc1` [Compound S-4], the log partition coefficient (logP) came out at 0.15.

In turn, `COc1ccc([S+](c2ccc(C)cc2)c2ccc(OC)cc2)cc1` [Compound S-2] registered a logP of 0.12.

`COc1ccc([S+](c2ccc(C)cc2)c2ccc(C)cc2)cc1` [Compound S-3]: the logP is 0.12.

Take `COc1ccc([S+](c2ccc(OC)cc2)c2ccc(OC)cc2)cc1` [Compound S-1]: the logP was 0.1. This logP and that of the molecule before are within 0.2 log units of each other.
